US20260234157A1, “COMPOUND AND METHOD FOR TARGETED DEGRADATION OF ANDROGEN RECEPTOR” (Gan & Lee Pharmaceuticals Co., Ltd., priority 2023, published 2026)
Residue numbers refer to the chain shown, from its start.

tested on: VCaP cells; test: Inhibition of proliferation of VCaP cells (WST-8); assay type: cell-based; settings: Homo sapiens; VCaP cells, 168 hours, WST-8 absorbance at 450 nm; read-out: IC50 for inhibiting the proliferation of VCaP cells
Outline: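 VCaP FGC cells, 15000 per well in DMEM with 10% FBS, were cultured at 37° C, 5% CO2. On day nine, WST-8 reagent was added to read proliferation.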

SMILES	IC50 [µM]
N#Cc1ccc(O[C@H]2CC[C@H](NC(=O)c3ccc(N4CCC5(CC4)CC(N4CCC6(CCc7ccc8c(c7O6)CN(C6CCC(=O)NC6=O)C8=O)CC4)C5)nn3)CC2)cc1Cl (stereo partly drawn) [Compound 154]	0.01
N#Cc1ccc(O[C@H]2CC[C@H](NC(=O)c3ccc(N4CCC(F)(CN5CC6(CCc7ccc8c(c7O6)C(=O)N(C6CCC(=O)NC6=O)C8=O)C5)CC4)nn3)CC2)cc1Cl (stereo partly drawn) [Compound 164]	11.8
COC1(CN2CC3(CCc4ccc5c(c4O3)C(=O)N(C3CCC(=O)NC3=O)C5=O)C2)CCN(c2ccc(C(=O)N[C@H]3CC[C@H](Oc4ccc(C#N)c(Cl)c4)CC3)nn2)CC1 (stereo partly drawn) [Compound 165]	> 90
COC1(CN2CCC3(CCc4ccc5c(c4O3)CN(C3CCC(=O)NC3=O)C5=O)CC2)CCN(c2ccc(C(=O)N[C@H]3CC[C@H](Oc4ccc(C#N)c(Cl)c4)CC3)nn2)CC1 (stereo partly drawn) [Compound 167]	> 90
N#Cc1ccc(O[C@H]2CC[C@H](NC(=O)c3ccc(N4CCC(CC(=O)N5CCC6(CC5)COc5c6ccc6c5CN(C5CCC(=O)NC5=O)C6=O)CC4)nn3)CC2)cc1Cl (stereo partly drawn) [Compound 192]	0.003
COc1cc(O[C@H]2C(C)(C)[C@H](NC(=O)c3ccc(N4CCC(C#N)(CN5CCC6(CC5)COc5c6ccc6c5C(=O)N(C5CCC(=O)NC5=O)C6=O)CC4)cc3)C2(C)C)ccc1C#N (stereo partly drawn) [Compound 207]	0.038

tested on: LNCaP FGC cells; test: Inhibition of proliferation of LNCaP cells (WST-8); assay type: cell-based; settings: Homo sapiens, LNCaP, 96 h, LNCaP FGC cells, 96 hours, WST-8 absorbance at 450 nm; read-out: IC50 for inhibiting the proliferation of LNCaP cells
Description: The cells were cultured in a cell culture incubator with 5% CO2 at 37° C. overnight. […] On the sixth day, 96 well plates were taken out, and 20 μL of WST-8 (Beytime, C0040) reagent was added to each well.

SMILES	IC50 [µM]
N#Cc1ccc(O[C@H]2CC[C@H](NC(=O)c3ccc(N4CCC5(CC4)CC(N4CCC6(CCc7ccc8c(c7O6)CN(C6CCC(=O)NC6=O)C8=O)CC4)C5)nn3)CC2)cc1Cl (stereo partly drawn) [Compound 154]	39.5
N#Cc1ccc(O[C@H]2CC[C@H](NC(=O)c3ccc(N4CCC(F)(CN5CC6(CCc7ccc8c(c7O6)C(=O)N(C6CCC(=O)NC6=O)C8=O)C5)CC4)nn3)CC2)cc1Cl (stereo partly drawn) [Compound 164]	90.5
COC1(CN2CC3(CCc4ccc5c(c4O3)C(=O)N(C3CCC(=O)NC3=O)C5=O)C2)CCN(c2ccc(C(=O)N[C@H]3CC[C@H](Oc4ccc(C#N)c(Cl)c4)CC3)nn2)CC1 (stereo partly drawn) [Compound 165]	96.6
N#Cc1ccc(O[C@H]2CC[C@H](NC(=O)c3ccc(N4CCC(CC(=O)N5CCC6(CC5)COc5c6ccc6c5CN(C5CCC(=O)NC5=O)C6=O)CC4)nn3)CC2)cc1Cl (stereo partly drawn) [Compound 192]	2.59
COc1cc(O[C@H]2C(C)(C)[C@H](NC(=O)c3ccc(N4CCC(C#N)(CN5CCC6(CC5)COc5c6ccc6c5C(=O)N(C5CCC(=O)NC5=O)C6=O)CC4)cc3)C2(C)C)ccc1C#N (stereo partly drawn) [Compound 207]	0.87

same assay, conditions: LNCaP FGC cells, 96 hours, WST-8 absorbance at 450 nm; read-out: IC50 for inhibiting the proliferation of LNCaP cells

SMILES	IC50 [µM]
COC1(CN2CCC3(CCc4ccc5c(c4O3)CN(C3CCC(=O)NC3=O)C5=O)CC2)CCN(c2ccc(C(=O)N[C@H]3CC[C@H](Oc4ccc(C#N)c(Cl)c4)CC3)nn2)CC1 (stereo partly drawn) [Compound 167]	80.1

molecular target: T1, AR protein (Homo sapiens, UniProt P10275, T878A); test: Degradation of AR protein in LNCaP cells (Western blot); assay type: cell-based; settings: LNCaP cells, compound 10 nM, 8 hours, Western blot grayscale, GAPDH internal reference; read-out: Degradation rates of the AR protein in LNCaP cells, 10 nM (%)
T1 construct: degradation activity of the compounds disclosed in the present disclosure on AR protein in LNCaP cells; host or cells: LNCaP FGC
T1 sequence (P10275 1-920 T878A): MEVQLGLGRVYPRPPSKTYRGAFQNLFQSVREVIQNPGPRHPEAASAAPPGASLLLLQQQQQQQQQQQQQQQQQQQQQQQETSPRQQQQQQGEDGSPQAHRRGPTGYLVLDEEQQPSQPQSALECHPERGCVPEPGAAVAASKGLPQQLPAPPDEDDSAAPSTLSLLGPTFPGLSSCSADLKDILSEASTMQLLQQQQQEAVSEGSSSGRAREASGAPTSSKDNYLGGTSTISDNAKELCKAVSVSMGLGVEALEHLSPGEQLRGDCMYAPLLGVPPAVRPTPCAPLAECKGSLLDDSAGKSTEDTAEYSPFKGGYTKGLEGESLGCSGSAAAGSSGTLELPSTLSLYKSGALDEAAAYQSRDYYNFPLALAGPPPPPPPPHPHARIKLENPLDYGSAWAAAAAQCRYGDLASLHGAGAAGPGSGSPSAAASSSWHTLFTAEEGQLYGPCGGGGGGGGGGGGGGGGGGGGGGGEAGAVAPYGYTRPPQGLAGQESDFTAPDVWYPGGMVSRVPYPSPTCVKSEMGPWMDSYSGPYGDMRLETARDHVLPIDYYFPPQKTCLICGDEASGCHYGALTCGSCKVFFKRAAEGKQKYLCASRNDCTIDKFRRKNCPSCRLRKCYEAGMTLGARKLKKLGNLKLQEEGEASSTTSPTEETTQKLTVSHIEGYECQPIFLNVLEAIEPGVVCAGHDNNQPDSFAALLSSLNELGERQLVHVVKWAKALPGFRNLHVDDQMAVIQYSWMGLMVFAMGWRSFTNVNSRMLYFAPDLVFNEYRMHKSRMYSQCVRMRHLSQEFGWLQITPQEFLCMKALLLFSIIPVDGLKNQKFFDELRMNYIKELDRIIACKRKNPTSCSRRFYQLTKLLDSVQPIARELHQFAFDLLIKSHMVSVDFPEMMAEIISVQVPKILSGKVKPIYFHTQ
Outline: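 AR assessed by SDS-PAGE/Western blot with infrared imaging; band greyscale normalised to GAPDH gave percent degradation.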

SMILES	inhibition at 0.01 µM [%]
N#Cc1ccc(O[C@H]2CC[C@H](NC(=O)c3ccc(N4CCC5(CC4)CC(N4CCC6(CCc7ccc8c(c7O6)CN(C6CCC(=O)NC6=O)C8=O)CC4)C5)nn3)CC2)cc1Cl (stereo partly drawn) [Compound 154]	46
N#Cc1ccc(O[C@H]2CC[C@H](NC(=O)c3ccc(N4CCC(F)(CN5CC6(CCc7ccc8c(c7O6)C(=O)N(C6CCC(=O)NC6=O)C8=O)C5)CC4)nn3)CC2)cc1Cl (stereo partly drawn) [Compound 164]	25
COC1(CN2CC3(CCc4ccc5c(c4O3)C(=O)N(C3CCC(=O)NC3=O)C5=O)C2)CCN(c2ccc(C(=O)N[C@H]3CC[C@H](Oc4ccc(C#N)c(Cl)c4)CC3)nn2)CC1 (stereo partly drawn) [Compound 165]	28
COC1(CN2CCC3(CCc4ccc5c(c4O3)CN(C3CCC(=O)NC3=O)C5=O)CC2)CCN(c2ccc(C(=O)N[C@H]3CC[C@H](Oc4ccc(C#N)c(Cl)c4)CC3)nn2)CC1 (stereo partly drawn) [Compound 167]	45
N#Cc1ccc(O[C@H]2CC[C@H](NC(=O)c3ccc(N4CCC(CC(=O)N5CCC6(CC5)COc5c6ccc6c5CN(C5CCC(=O)NC5=O)C6=O)CC4)nn3)CC2)cc1Cl (stereo partly drawn) [Compound 192]	37
COc1cc(O[C@H]2C(C)(C)[C@H](NC(=O)c3ccc(N4CCC(C#N)(CN5CCC6(CC5)COc5c6ccc6c5C(=O)N(C5CCC(=O)NC5=O)C6=O)CC4)cc3)C2(C)C)ccc1C#N (stereo partly drawn) [Compound 207]	28

same assay, conditions: LNCaP cells, compound 100 nM, 8 hours, Western blot grayscale, GAPDH internal reference; read-out: Degradation rates of the AR protein in LNCaP cells, 100 nM (%)

SMILES	inhibition at 0.1 µM [%]
N#Cc1ccc(O[C@H]2CC[C@H](NC(=O)c3ccc(N4CCC5(CC4)CC(N4CCC6(CCc7ccc8c(c7O6)CN(C6CCC(=O)NC6=O)C8=O)CC4)C5)nn3)CC2)cc1Cl (stereo partly drawn) [Compound 154]	48
N#Cc1ccc(O[C@H]2CC[C@H](NC(=O)c3ccc(N4CCC(F)(CN5CC6(CCc7ccc8c(c7O6)C(=O)N(C6CCC(=O)NC6=O)C8=O)C5)CC4)nn3)CC2)cc1Cl (stereo partly drawn) [Compound 164]	4
COC1(CN2CC3(CCc4ccc5c(c4O3)C(=O)N(C3CCC(=O)NC3=O)C5=O)C2)CCN(c2ccc(C(=O)N[C@H]3CC[C@H](Oc4ccc(C#N)c(Cl)c4)CC3)nn2)CC1 (stereo partly drawn) [Compound 165]	25
COC1(CN2CCC3(CCc4ccc5c(c4O3)CN(C3CCC(=O)NC3=O)C5=O)CC2)CCN(c2ccc(C(=O)N[C@H]3CC[C@H](Oc4ccc(C#N)c(Cl)c4)CC3)nn2)CC1 (stereo partly drawn) [Compound 167]	18
N#Cc1ccc(O[C@H]2CC[C@H](NC(=O)c3ccc(N4CCC(CC(=O)N5CCC6(CC5)COc5c6ccc6c5CN(C5CCC(=O)NC5=O)C6=O)CC4)nn3)CC2)cc1Cl (stereo partly drawn) [Compound 192]	35
COc1cc(O[C@H]2C(C)(C)[C@H](NC(=O)c3ccc(N4CCC(C#N)(CN5CCC6(CC5)COc5c6ccc6c5C(=O)N(C5CCC(=O)NC5=O)C6=O)CC4)cc3)C2(C)C)ccc1C#N (stereo partly drawn) [Compound 207]	40

molecular target: T2, AR protein (Homo sapiens, UniProt P10275); test: Degradation of AR protein in VCaP cells (Western blot); assay type: cell-based; settings: compound at 10 nM, 8 hours, read-out: Degradation rate of the AR protein in VCaP cells, 10 nM (%)
T2 construct: degradation activity of the compounds disclosed in the present disclosure on AR protein in VCaP cells; host or cells: VCaP
T2 sequence (P10275 1-920): T1 sequence (P10275 1-920 T878A) with A878T
Outline: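 VCaP cells treated with compound alongside solvent controls for 8 h, then lysed in RIPA and protein quantified by BCA. AR detected by SDS-PAGE/Western blot with infrared imaging. Degradation rate calculated from band grayscale, with GAPDH as internal reference.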

SMILES	inhibition at 0.01 µM [%]
N#Cc1ccc(O[C@H]2CC[C@H](NC(=O)c3ccc(N4CCC5(CC4)CC(N4CCC6(CCc7ccc8c(c7O6)CN(C6CCC(=O)NC6=O)C8=O)CC4)C5)nn3)CC2)cc1Cl (stereo partly drawn) [Compound 154]	75
N#Cc1ccc(O[C@H]2CC[C@H](NC(=O)c3ccc(N4CCC(F)(CN5CC6(CCc7ccc8c(c7O6)C(=O)N(C6CCC(=O)NC6=O)C8=O)C5)CC4)nn3)CC2)cc1Cl (stereo partly drawn) [Compound 164]	4
COC1(CN2CC3(CCc4ccc5c(c4O3)C(=O)N(C3CCC(=O)NC3=O)C5=O)C2)CCN(c2ccc(C(=O)N[C@H]3CC[C@H](Oc4ccc(C#N)c(Cl)c4)CC3)nn2)CC1 (stereo partly drawn) [Compound 165]	-43
COC1(CN2CCC3(CCc4ccc5c(c4O3)CN(C3CCC(=O)NC3=O)C5=O)CC2)CCN(c2ccc(C(=O)N[C@H]3CC[C@H](Oc4ccc(C#N)c(Cl)c4)CC3)nn2)CC1 (stereo partly drawn) [Compound 167]	33
N#Cc1ccc(O[C@H]2CC[C@H](NC(=O)c3ccc(N4CCC(CC(=O)N5CCC6(CC5)COc5c6ccc6c5CN(C5CCC(=O)NC5=O)C6=O)CC4)nn3)CC2)cc1Cl (stereo partly drawn) [Compound 192]	66
COc1cc(O[C@H]2C(C)(C)[C@H](NC(=O)c3ccc(N4CCC(C#N)(CN5CCC6(CC5)COc5c6ccc6c5C(=O)N(C5CCC(=O)NC5=O)C6=O)CC4)cc3)C2(C)C)ccc1C#N (stereo partly drawn) [Compound 207]	-46

same assay, conditions: compound at 100 nM, 8 hours, read-out: Degradation rate of the AR protein in VCaP cells, 100 nM (%)

SMILES	inhibition at 0.1 µM [%]
N#Cc1ccc(O[C@H]2CC[C@H](NC(=O)c3ccc(N4CCC5(CC4)CC(N4CCC6(CCc7ccc8c(c7O6)CN(C6CCC(=O)NC6=O)C8=O)CC4)C5)nn3)CC2)cc1Cl (stereo partly drawn) [Compound 154]	86
N#Cc1ccc(O[C@H]2CC[C@H](NC(=O)c3ccc(N4CCC(F)(CN5CC6(CCc7ccc8c(c7O6)C(=O)N(C6CCC(=O)NC6=O)C8=O)C5)CC4)nn3)CC2)cc1Cl (stereo partly drawn) [Compound 164]	8
COC1(CN2CC3(CCc4ccc5c(c4O3)C(=O)N(C3CCC(=O)NC3=O)C5=O)C2)CCN(c2ccc(C(=O)N[C@H]3CC[C@H](Oc4ccc(C#N)c(Cl)c4)CC3)nn2)CC1 (stereo partly drawn) [Compound 165]	23
COC1(CN2CCC3(CCc4ccc5c(c4O3)CN(C3CCC(=O)NC3=O)C5=O)CC2)CCN(c2ccc(C(=O)N[C@H]3CC[C@H](Oc4ccc(C#N)c(Cl)c4)CC3)nn2)CC1 (stereo partly drawn) [Compound 167]	67
N#Cc1ccc(O[C@H]2CC[C@H](NC(=O)c3ccc(N4CCC(CC(=O)N5CCC6(CC5)COc5c6ccc6c5CN(C5CCC(=O)NC5=O)C6=O)CC4)nn3)CC2)cc1Cl (stereo partly drawn) [Compound 192]	86
COc1cc(O[C@H]2C(C)(C)[C@H](NC(=O)c3ccc(N4CCC(C#N)(CN5CCC6(CC5)COc5c6ccc6c5C(=O)N(C5CCC(=O)NC5=O)C6=O)CC4)cc3)C2(C)C)ccc1C#N (stereo partly drawn) [Compound 207]	37
